From patent US8987228B2, “Pharmaceutical composition including an A3 adenosine receptor agonist 1-deooxy-1-[N6-(3-idobenzyl)-adenin-9-yl]-N-methyl-β-D-ribofuronamide(IB-MECA/CF-101) for treatment of psoriasis” (Can-Fite Biopharma Ltd., priority 2009, dated 2015)
Entries after “also recorded” stand apart in the source; their conditions may differ.

Tested on: moderate-to-severe chronic plaque psoriasis
Assay: Phase 2, multi-center, randomized, double-blind, placebo-controlled clinical study in psoriasis patients (PASI assessment)
Format: in vivo, human
Conditions: 12 weeks
Method: A Phase 2, multi-center, randomized, double-blind, placebo-controlled clinical study was conducted in adult males and females, with ages of 18 to 70 years, with a diagnosis of moderate-to-severe chronic plaque psoriasis.
Eligible patients were randomly assigned to receive either placebo or a clinical grade […][N^6-(3-iodobenzyl)-adenin-9-yl]-N-methyl-β-D-ribofuronamide, IB-MECA (code-named by the study sponsor, Can-Fite Biopharma, the Assignee of this application, as “CF101”) at doses of 1 mg, 2 mg and 4 mg, taken orally twice daily (namely, total daily doses of 2 mg, 4 mg and 8 mg, respectively). IB-MECA was formulated in a tablet formulation as detailed in Table 1 below. Patients were instructed to take the formulation on an empty stomach. The study duration was 12 weeks.
The study was carried out in cohorts:
Cohort 1: 1 mg IB-MECA or placebo.
Cohort 2: 2 mg IB-MECA or placebo.
Cohort 3: 4 mg IB-MECA or placebo.
Within each cohort, patients were randomly assigned to either IB-MECA or placebo in a 3:1 ratio.
Disease was assessed using the Psoriasis Area and Severity Index (PASI).
Sixty two (62) patients were evaluated that belonged ton the following treatment groups (administration twice a day): […]

With `CNC(=O)[C@H]1O[C@@H](n2cnc3c(NCc4cccc(I)c4)ncnc32)[C@H](O)[C@@H]1O` [IB-MECA, 1-deoxy-1-[N^6-(3-iodobenzyl)-adenin-9-yl]-N-methyl-β-D-ribofuronamide] the “change in the Psoriasis Area and Severity Index (PASI) score from baseline over the study period” value (2 mg IB-MECA orally twice daily (total 4 mg/day) versus placebo, patients with moderate-to-severe chronic plaque psoriasis, FIG. 1) was “continuous improvement in the patients' condition throughout the course of the study; also recorded: marked effect” and the “difference between three doses of IB-MECA in the change in the PASI score from baseline over the study period” value (2 mg twice daily (total 4 mg/day) compared with 1 mg and 4 mg twice daily (2 mg/day and 8 mg/day), oral, FIG. 2) was “considerably greater response over the two other tested dose groups; also recorded: significantly more effective in treatment of the psoriatic plaques than treatment of psoriasis at daily doses of 2 mg or 8 mg; also recorded: superior to a lower daily dose of 2 mg or a higher dose of 8 mg”.
